Experimental data from patent US20240109881A1, “Heteroaryl Compounds as Ligand Directed Degraders of IRAK4” (Bristol-Myers Squibb Company, priority 2022, published 2024).

Target: T1, IRAK4 (Homo sapiens, UniProt Q9NWZ3)
T1 construct: endogenous in cells; host or cells: THP-1 cells
T1 sequence (Q9NWZ3 1-460): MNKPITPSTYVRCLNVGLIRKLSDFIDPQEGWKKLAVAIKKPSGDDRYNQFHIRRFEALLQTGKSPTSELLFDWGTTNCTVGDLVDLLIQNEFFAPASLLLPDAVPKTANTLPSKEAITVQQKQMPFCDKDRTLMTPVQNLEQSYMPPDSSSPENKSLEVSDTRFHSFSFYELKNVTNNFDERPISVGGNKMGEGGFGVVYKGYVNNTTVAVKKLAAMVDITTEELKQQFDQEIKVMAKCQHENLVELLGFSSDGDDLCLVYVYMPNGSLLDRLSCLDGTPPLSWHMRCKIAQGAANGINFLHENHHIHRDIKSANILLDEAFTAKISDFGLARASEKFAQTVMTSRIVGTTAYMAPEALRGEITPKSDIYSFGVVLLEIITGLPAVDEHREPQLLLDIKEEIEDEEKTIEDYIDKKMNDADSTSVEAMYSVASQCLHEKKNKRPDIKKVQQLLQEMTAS
Test: LVL THP1 HTRF (THP1 Homogeneous Time Resolved Fluorescence)
Assay type: cell-based
Details: THP1 cells, 18 h incubation with compound; for DC50: read-out: LVL THP1 HTRF EC50
In short: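 THP-1 cells in phenol red-free RPMI with 10% FBS were dosed with compound (20 nL in DMSO) for 18 h at 37° C. After 2 h lysis, IRAK4 was detected with anti-IRAK4-d2/anti-IRAK4-K HTRF antibodies for 18 h at room temperature and read at 665/615 nm; a parallel CTG plate was run.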

LVL THP1 HTRF YMIN [%] | DC50 [nM] | Compound
4.1 | 8.7 | C[C@H](C#N)Nc1cc(-n2ncc3cc(C#N)cnc32)ncc1-n1cc([C@H]2CC[C@H](CCN3CCN(c4ccc(N5CCC(=O)NC5=O)cn4)CC3)CC2)nn1 [P-371]
40.1 | 235 | C[C@H](C#N)Nc1cc(-n2ncc3cc(C#N)cnc32)ncc1-n1cc([C@H]2CC[C@H](CCN3CCN(c4ncc(N5CCC(=O)NC5=O)s4)CC3)CC2)nn1 [P-372]
2.5 | 6.5 | C[C@H](C#N)Nc1cc(-n2ncc3cc(Cl)cnc32)ncc1-n1cc([C@H]2CC[C@H](CCN3CCN(c4ccc(C5CCC(=O)NC5=O)cc4)CC3)CC2)nn1 (some centres unmarked) [P-375]
7.2 | 30.3 | C[C@H](C#N)Nc1nc(-n2ncc3cc(C#N)cnc32)ncc1C(=O)N[C@H]1CC[C@H](CCN2CCN(c3ccc(C4CCC(=O)NC4=O)cc3)CC2)CC1 (some centres unmarked) [P-376]
3.4 | 8.3 | C[C@H](C#N)Nc1nc(-n2ncc3cc(C#N)cnc32)ncc1-n1cc([C@H]2CC[C@H](CCN3CCN(c4ccc(C5CCC(=O)NC5=O)cc4)CC3)CC2)nn1 (some centres unmarked) [P-377]
2.2 | 13 | C[C@H](C#N)Nc1cc(Nc2ncc(C#N)cc2Cl)ncc1-n1cc([C@H]2CC[C@H](CCN3CCN(c4ccc(N5CCC(=O)NC5=O)cc4)[C@H](C)C3)CC2)nn1 [P-378]
1.8 | 4 | C[C@H](C#N)Nc1cc(Nc2ncc(C#N)cc2Cl)ncc1-n1cc([C@H]2CC[C@H](CCN3CCN(c4ccc(C5CCC(=O)NC5=O)cc4)CC3)CC2)nn1 (some centres unmarked) [P-379]
12.1 | 89.4 | C[C@H](C#N)Nc1cc(Nc2ncc(Cl)cc2Cl)ncc1-n1cc([C@H]2CC[C@H](CCN3CCN(c4ccc(C5CCC(=O)NC5=O)cc4)CC3)CC2)nn1 (some centres unmarked) [P-380]
2.1 | 8.3 | C[C@H](C#N)Nc1cc(Nc2ncc(C#N)cc2F)ncc1-n1cc([C@H]2CC[C@H](CCN3CCN(c4ccc(C5CCC(=O)NC5=O)cc4)CC3)CC2)nn1 (some centres unmarked) [P-381]
4.1 | 28 | C[C@H](C#N)Nc1cc(Nc2ncc(F)cc2F)ncc1-n1cc([C@H]2CC[C@H](CCN3CCN(c4ccc(C5CCC(=O)NC5=O)cc4)CC3)CC2)nn1 (some centres unmarked) [P-382]
5.6 | 31.3 | C[C@H](C#N)Nc1cc(Nc2ncncc2F)ncc1-n1cc([C@H]2CC[C@H](CCN3CCN(c4ccc(C5CCC(=O)NC5=O)cc4)CC3)CC2)nn1 (some centres unmarked) [P-383]
6.5 | 45.4 | C[C@H](C#N)Nc1cc(Nc2ncc(C#N)cc2Cl)ncc1-n1cc([C@H]2CC[C@H](CCN3CCN(c4ccc(N5CCC(=O)NC5=O)cc4)CC3)CC2)nn1 [P-384]
−1.9 | 8.7 | C[C@H](C#N)Nc1cc(Nc2ncc(C#N)cc2F)ncc1-n1cc([C@H]2CC[C@H](CCN3CCN(c4ccc(N5CCC(=O)NC5=O)cc4)[C@H](C)C3)CC2)nn1 [P-385]
6.7 | 24.2 | C[C@H](C#N)Nc1cc(Nc2ncc(C#N)cc2F)ncc1-n1cc([C@H]2CC[C@H](CCN3CCN(c4ccc(N5CCC(=O)NC5=O)cc4)CC3)CC2)nn1 [P-386]
9.8 | 14.1 | C[C@H](C#N)Nc1cc(Nc2ncc(C#N)cn2)ncc1-n1cc([C@H]2CC[C@H](CCN3CCN(c4ccc(N5CCC(=O)NC5=O)cc4)[C@H](C)C3)CC2)nn1 [P-387]
3.5 | 11.1 | C[C@H](C#N)Nc1cc(Nc2ncc(C#N)cn2)ncc1-n1cc([C@H]2CC[C@H](CCN3CCN(c4ccc(C5CCC(=O)NC5=O)cc4)CC3)CC2)nn1 (some centres unmarked) [P-388]
18.9 | 180 | C[C@H](C#N)Nc1cc(Nc2ncc(C#N)cn2)ncc1-n1cc([C@H]2CC[C@H](CCN3CCN(c4ccc(N5CCC(=O)NC5=O)cc4)CC3)CC2)nn1 [P-389]
−0.8 | 3.7 | CC(C)(O)CNc1cc(-n2ncc3cc(C#N)cnc32)ncc1-n1cc([C@H]2CC[C@H](CCN3CCN(c4ccc(C5CCC(=O)NC5=O)cc4)CC3)CC2)nn1 (some centres unmarked) [P-391]
−3.4 | 6.1 | CC[C@@H]1CN(CC[C@H]2CC[C@H](c3cn(-c4cnc(-n5ncc6cc(C#N)cnc65)cc4N[C@H](C)C#N)nn3)CC2)CCN1c1ccc(N2CCC(=O)NC2=O)cc1 [P-393]
2.6 | 9.3 | CCNc1cc(-n2ncc3cc(C#N)cnc32)ncc1-n1cc([C@H]2CC[C@H](CCN3CCN(c4ccc(C5CCC(=O)NC5=O)cc4)CC3)CC2)nn1 (some centres unmarked) [P-395]

LVL THP1 HTRF YMIN [%] | DC50 [nM] | Compound
6.2 | 14.3 | COc1cnc2c(cnn2-c2cc(N[C@H](C)C#N)c(-n3cc([C@H]4CC[C@H](CCN5CCN(c6ccc(C7CCC(=O)NC7=O)cc6)CC5)CC4)nn3)cn2)c1 (some centres unmarked) [P-397]
5.8 | 24 | COc1cnc(Nc2cc(N[C@H](C)C#N)c(-n3cc([C@H]4CC[C@H](CCN5CCN(c6ccc(C7CCC(=O)NC7=O)cc6)CC5)CC4)nn3)cn2)nc1 (some centres unmarked) [P-398]
8.2 | 43.1 | C[C@H](C#N)Nc1cc(-n2ncc3cc(C#N)cnc32)ncc1-n1cc([C@H]2CC[C@H](CCN3CCC(c4ccc(N5CCC(=O)NC5=O)cc4)C(F)C3)CC2)nn1 (some centres unmarked) [P-399]
0.5 | 12 | C[C@H](C#N)Nc1cc(-n2ncc3cc(C#N)cnc32)ncc1-n1cc([C@H]2CC[C@H](CCN3CCC(c4ccc(N5CCC(=O)NC5=O)cc4)C(F)(F)C3)CC2)nn1 (some centres unmarked) [P-401]
1.9 | 3.3 | N#Cc1cnc2c(cnn2-c2cc(N[C@H]3CCC[C@H]3O)c(-n3cc([C@H]4CC[C@H](CCN5CCN(c6ccc(C7CCC(=O)NC7=O)cc6)CC5)CC4)nn3)cn2)c1 (some centres unmarked) [P-402]
3.7 | 2.5 | N#Cc1cnc2c(cnn2-c2cc(N[C@H]3CCC[C@@H]3O)c(-n3cc([C@H]4CC[C@H](CCN5CCN(c6ccc(C7CCC(=O)NC7=O)cc6)CC5)CC4)nn3)cn2)c1 (some centres unmarked) [P-403]
1.7 | 7.6 | N#Cc1cnc2c(cnn2-c2cc(NC3CCOCC3)c(-n3cc([C@H]4CC[C@H](CCN5CCN(c6ccc(C7CCC(=O)NC7=O)cc6)CC5)CC4)nn3)cn2)c1 (some centres unmarked) [P-406]
5.6 | 35.8 | N#Cc1cnc2c(cnn2-c2cc(NCC3CCOCC3)c(-n3cc([C@H]4CC[C@H](CCN5CCN(c6ccc(C7CCC(=O)NC7=O)cc6)CC5)CC4)nn3)cn2)c1 (some centres unmarked) [P-407]
7.8 | 42.6 | N#Cc1cnc2c(cnn2-c2cc(NCC3COC3)c(-n3cc([C@H]4CC[C@H](CCN5CCN(c6ccc(C7CCC(=O)NC7=O)cc6)CC5)CC4)nn3)cn2)c1 (some centres unmarked) [P-408]
8.3 | 82.5 | N#Cc1cnc2c(cnn2-c2cc(OC3CC3)c(-n3cc([C@H]4CC[C@H](CCN5CCN(c6ccc(C7CCC(=O)NC7=O)cc6)CC5)CC4)nn3)cn2)c1 (some centres unmarked) [P-409]
90.4 | 1000 | N#Cc1cnc2c(cnn2-c2cc(OCC3CCOCC3)c(-n3cc([C@H]4CC[C@H](CCN5CCN(c6ccc(C7CCC(=O)NC7=O)cc6)CC5)CC4)nn3)cn2)c1 (some centres unmarked) [P-411]
15.2 | 160 | N#Cc1cnc2c(cnn2-c2cc(NC3CCCC3)c(-n3cc([C@H]4CC[C@H](CCN5CCN(c6ccc(N7CCC(=O)NC7=O)cc6)CC5)CC4)nn3)cn2)c1 [P-412]
−1.3 | 5.1 | C[C@H](C#N)Nc1cc(-n2ncc3cc(C#N)cnc32)ncc1-n1cc([C@H]2CC[C@H](CCN3CCC(c4ccn(C5CCC(=O)NC5=O)c(=O)c4)CC3)CC2)nn1 (some centres unmarked) [P-413]
39.6 | 979 | C[C@H](C#N)Nc1cc(-n2ncc3cc(C#N)cnc32)ncc1-n1cc([C@H]2CC[C@H](CCN3CCN(Cc4ccc(N5CCC(=O)NC5=O)cc4)CC3)CC2)nn1 [P-422]
8.6 | 143 | C[C@H](C#N)Nc1cc(-n2ncc3cc(C#N)cnc32)ncc1-n1cc([C@H]2CC[C@H](CCN3CCN(c4ccc(N5CCC(=O)NC5=O)nn4)CC3)CC2)nn1 [P-423]
0.8 | 124 | C[C@H](C#N)Nc1cc(-n2ncc3cc(C#N)cnc32)ncc1C(=O)N[C@H]1CC[C@H](CCN2CCC(c3ccn(C4CCC(=O)NC4=O)c(=O)c3)CC2)CC1 (some centres unmarked) [P-425]
−0.6 | 3.2 | C[C@H](C#N)Nc1cc(-n2ncc3cc(C#N)c(N)nc32)ncc1-n1cc([C@H]2CC[C@H](CCN3CCN(c4ccc(N5CCC(=O)NC5=O)cn4)CC3)CC2)nn1 [P-428]
1.8 | 1.3 | C[C@H](C#N)Nc1cc(-n2ncc3cc(C#N)cnc32)ncc1-n1cc([C@H]2CC[C@H](CCN3CC4(CC(c5ccc(N6CCC(=O)NC6=O)c(Cl)c5)C4)C3)CC2)nn1 [P-432]
37.6 | 700 | C[C@H](C#N)Nc1cc(-n2ncc3cc(C#N)cnc32)ncc1C(=O)N[C@H]1CC[C@H](CCN2CC3(CC(c4ccc(N5CCC(=O)NC5=O)cc4)C3)C2)CC1 [P-433]
1.9 | 29.9 | C[C@H](C#N)Nc1cc(Nc2ncc(C#N)cc2Cl)ncc1-n1cc([C@H]2CC[C@H](CCN3CC4(CC(c5ccc(N6CCC(=O)NC6=O)cc5)C4)C3)CC2)nn1 [P-434]
